Experimental data reported in BindingDB's records for doi:10.1021/jm021050c (Universit&#233, 2003).

The molecules below were run against imidazoline I2 binding site (Oryctolagus cuniculus) (assay: In vitro binding affinity determined against imidazoline receptor I-2 using rabbit kidney preparation).
Work on `CN1CC(C2=NCCN2)Oc2cc3ccccc3cc21` (stereo unspecified) [2-(4,5-Dihydro-1H-imidazol-2-yl)-4-methyl-3,4-dihydro-2H-naphtho[2,3-b][1,4]oxazine] yielded a Ki of 278 nM. For `Cc1ccc2c(c1)OC(C1=NCCN1)CN2C` (stereo unspecified) [2-(4,5-Dihydro-1H-imidazol-2-yl)-4,7-dimethyl-3,4-dihydro-2H-benzo[1,4]oxazine], the Ki was 47 nM. Molecule `COC(=O)c1ccc2c(c1)N(C)CC(C1=NCCN1)O2` (stereo unspecified) [2-(4,5-Dihydro-1H-imidazol-2-yl)-4-methyl-3,4-dihydro-2H-benzo[1,4]oxazine-6-carboxylic acid methyl ester] has a Ki of 7 nM. Molecule `Cc1cc(C)c2c(c1)N(C)CC(C1=NCCN1)O2` (stereo unspecified) [2-(4,5-Dihydro-1H-imidazol-2-yl)-4,6,8-trimethyl-3,4-dihydro-2H-benzo[1,4]oxazine] has a Ki of over 1000 nM. Work on `COc1cc(=O)n2c3c(cccc13)OC(C1=NCCN1)C2` (stereo unspecified) [2-(4,5-Dihydro-1H-imidazol-2-yl)-6-methoxy-2,3-dihydro-1-oxa-3a-aza-phenalen-4-one] yielded a Ki of 750 nM. In the case of `CN1CC(C2=NCCN2)Oc2ccc(Cl)cc21` (stereo unspecified) [6-Chloro-2-(4,5-dihydro-1H-imidazol-2-yl)-4-methyl-3,4-dihydro-2H-benzo[1,4]oxazine], the Ki is reported as 173 nM. In the case of `Cc1ccc2c3c1CCCN3CC(C1=NCCN1)O2` (stereo unspecified) [2-(4,5-Dihydro-1H-imidazol-2-yl)-7-methyl-2,3,5,6-tetrahydro-4H-1-oxa-3a-aza-phenalene], the Ki is reported as over 1000 nM. For `CCOCc1ccc2c(c1)N(C)CC(C1=NCCN1)O2` (stereo unspecified) [2-(4,5-Dihydro-1H-imidazol-2-yl)-6-ethoxymethyl-4-methyl-3,4-dihydro-2H-benzo[1,4]oxazine], the Ki was 17 nM. `c1cc2c3c(c1)OC(C1=NCCN1)CN3CC2` (stereo unspecified) [4-(4,5-Dihydro-1H-imidazol-2-yl)-1,2,3,4-tetrahydro-5-oxa-2a-aza-acenaphthylene] was tested, and the Ki was 33 nM. Work on `CCCC1(C2=NCCN2)CN(C)c2ccccc2O1` (stereo unspecified) [2-(4,5-Dihydro-1H-imidazol-2-yl)-4-methyl-2-propyl-3,4-dihydro-2H-benzo[1,4]oxazine] yielded a Ki of 8530 nM. Molecule `CN1CC(C2=NCCN2)Oc2ccc(CO)cc21` (stereo unspecified) [[2-(4,5-Dihydro-1H-imidazol-2-yl)-4-methyl-3,4-dihydro-2H-benzo[1,4]oxazin-6-yl]-methanol] has a Ki of 100 nM. For `c1ccc2c(c1)NCC(C1=NCCN1)O2` (stereo unspecified) [2-(4,5-Dihydro-1H-imidazol-2-yl)-3,4-dihydro-2H-benzo[1,4]oxazine], the Ki was 51 nM. Molecule `CN1CC(C)(C2=NCCN2)Oc2ccccc21` (stereo unspecified) [2-(4,5-Dihydro-1H-imidazol-2-yl)-2,4-dimethyl-3,4-dihydro-2H-benzo[1,4]oxazine] has a Ki of over 10000 nM. In the case of `Cc1cccc2c1OC(C1=NCCN1)CN2C` (stereo unspecified) [2-(4,5-Dihydro-1H-imidazol-2-yl)-4,8-dimethyl-3,4-dihydro-2H-benzo[1,4]oxazine], the Ki is reported as 54 nM. Work on `Cc1cccc2c1N(C)CC(C1=NCCN1)O2` (stereo unspecified) [2-(4,5-Dihydro-1H-imidazol-2-yl)-4,5-dimethyl-3,4-dihydro-2H-benzo[1,4]oxazine] yielded a Ki of 470 nM. Work on `c1cc2c3c(c1)OC(C1=NCCN1)CN3CCCC2` (stereo unspecified) [2-(4,5-Dihydro-1H-imidazol-2-yl)-1,2,7,8,9,10-hexahydro-3-oxa-10a-aza-cyclohepta[de]naphthalene] yielded a Ki of 643 nM.
